In patent publication US20230234943A1, “TREX1 INHIBITORS AND USES THEREOF” (Tempest Therapeutics, Inc., priority 2020, published 2023) one finds IC50 data, which are given here for 31 compounds.

Structures are written as SMILES.

This assay has as its target T1, Human TREX1 enzyme (amino acids 1-242) (Homo sapiens, UniProt Q9NSU2).
T1 construct: Human TREX1 enzyme (amino acids 1-242)
T1 sequence (Q9NSU2 1-242): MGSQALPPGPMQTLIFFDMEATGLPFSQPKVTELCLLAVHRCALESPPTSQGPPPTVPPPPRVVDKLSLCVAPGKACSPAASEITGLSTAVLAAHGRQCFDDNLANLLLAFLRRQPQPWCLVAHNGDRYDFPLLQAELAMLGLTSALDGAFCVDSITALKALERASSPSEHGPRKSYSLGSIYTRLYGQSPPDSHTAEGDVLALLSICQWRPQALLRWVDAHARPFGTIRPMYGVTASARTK
Put plainly: Human TREX1 enzymatic assay with dsDNA native oligonucleotide (Picogreen fluorescence). Conditions: 2 mM dithiothreitol in assay buffer; 50 nM dsDNA oligonucleotide; 30 min preincubation at 25° C.; read-out: TREX1/Human + DTT IC50 AVG. Type of assay: biochemical. An outline of the steps: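 Remaining dsDNA quantified by Picogreen fluorescence after EDTA quench, with no-enzyme and DMSO wells as controls. Reactions used 50 nM annealed oligonucleotide for 5–15 min at 25 °C, after a 30 min compound–enzyme preincubation (0.8–0.16 nM TREX1; 2% DMSO; pH 7.7 Tris, 5 mM MgCl2).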
As for `COc1cc(-c2nc3cc(N4CCN(C(=O)c5ccncc5)CC4)ccc3[nH]2)cc(O)c1O` [Example 96, (4-(2-(3,4-dihydroxy-5-methoxyphenyl)-1H-benzo[d]imidazol-5-yl)piperazin-1-yl)(pyridin-4-yl)methanone], the IC50 fell in the range of 10 to 100 µM. With `COc1cc(-c2nc3cc(N4CCN(C(=O)c5ccccn5)CC4)ccc3[nH]2)cc(O)c1O` [Example 97, (4-(2-(3,4-dihydroxy-5-methoxyphenyl)-1H-benzo[d]imidazol-5-yl)piperazin-1-yl)(pyridin-2-yl)methanone] the figure was 10 to 100 µM; with `COc1cc(-c2nc3cc(N4CCN(C(=O)c5ccc(C)cc5)CC4)ccc3[nH]2)cc(O)c1O` [Example 98, (4-(2-(3,4-dihydroxy-5-methoxyphenyl)-1H-benzo[d]imidazol-5-yl)piperazin-1-yl)(p-tolyl)methanone], 1 to 10 µM; with `COc1cc(-c2nc3cc(N4CCN(C(=O)c5ccccc5C)CC4)ccc3[nH]2)cc(O)c1O` [Example 99, (4-(2-(3,4-dihydroxy-5-methoxyphenyl)-1H-benzo[d]imidazol-5-yl)piperazin-1-yl)(o-tolyl)methanone], 1 to 10 µM. As for `COc1cc(-c2nc3cc(N4CCN(C(=O)c5ccc(C)cc5C)CC4)ccc3[nH]2)cc(O)c1O` [Example 100, (4-(2-(3,4-dihydroxy-5-methoxyphenyl)-1H-benzo[d]imidazol-5-yl)piperazin-1-yl)(2,4-dimethylphenyl)methanone], the figure is more than 100 µM. With `COc1cc(-c2nc3cc(N4CCN(C(=O)c5cccc(C(=O)O)c5)CC4)ccc3[nH]2)cc(O)c1O` [Example 101, 3-(4-(2-(3,4-dihydroxy-5-methoxyphenyl)-1H-benzo[d]imidazol-5-yl)piperazine-1-carbonyl)benzoic acid] the figure was 10 to 100 µM; with `COc1cc(-c2nc3cc(N4CCN(C(=O)c5ccc(C(F)(F)F)cc5)CC4)ccc3[nH]2)cc(O)c1O` [Example 102, (4-(2-(3,4-dihydroxy-5-methoxyphenyl)-1H-benzo[d]imidazol-5-yl)piperazin-1-yl)(4-(trifluoromethyl)phenyl)methanone], more than 100 µM. As for `COc1cc(-c2nc3cc(N4CCN(C(=O)c5cccc(C(F)(F)F)c5)CC4)ccc3[nH]2)cc(O)c1O` [Example 103, (4-(2-(3,4-dihydroxy-5-methoxyphenyl)-1H-benzo[d]imidazol-5-yl)piperazin-1-yl)(3-(trifluoromethyl)phenyl)methanone], the IC50 was more than 100 µM. With `COc1cc(-c2nc3cc(N4CCN(C(=O)c5ccccc5C(F)(F)F)CC4)ccc3[nH]2)cc(O)c1O` [Example 104, (4-(2-(3,4-dihydroxy-5-methoxyphenyl)-1H-benzo[d]imidazol-5-yl)piperazin-1-yl)(2-(trifluoromethyl)phenyl)methanone] the figure was more than 100 µM; with `COc1cc(-c2nc3cc(N4CCN(C(=O)c5ccccc5-c5ccccc5)CC4)ccc3[nH]2)cc(O)c1O` [Example 105, [1,1′-biphenyl]-2-yl(4-(2-(3,4-dihydroxy-5-methoxyphenyl)-1H-benzo[d]imidazol-5-yl)piperazin-1-yl)methanone], more than 100 µM; with `COc1cc(-c2nc3ccc(N4CCN(C(=O)c5ccccc5)CC4)cc3n2C2CCOC2)cc(O)c1O` (stereo not shown) [Example 106, (4-(2-(3,4-dihydroxy-5-methoxyphenyl)-1-(tetrahydrofuran-3-yl)-1H-benzo[d]imidazol-6-yl)piperazin-1-yl)(phenyl)methanone], 1 to 10 µM. With `COc1cc(-c2nc3cc(N4CCN(C)C(=O)C4)ccc3[nH]2)cc(O)c1O` [Example 108, 4-(2-(3,4-dihydroxy-5-methoxyphenyl)-1H-benzo[d]imidazol-5-yl)-1-methylpiperazin-2-one] the figure was 1 to 10 µM; with `COc1cc(-c2nc3cc(C4CCN(C(C)=O)CC4)ccc3[nH]2)cc(O)c1O` [Example 109, 1-(4-(2-(3,4-dihydroxy-5-methoxyphenyl)-1H-benzo[d]imidazol-5-yl)piperidin-1-yl)ethanone], 10 to 100 µM; with `COc1cc(-c2nc3c(N4CCOCC4)nccc3[nH]2)cc(O)c1O` [Example 110, 3-methoxy-5-(4-morpholino-1H-imidazo[4,5-c]pyridin-2-yl)benzene-1,2-diol], more than 100 µM.

In the case of `COc1cc(-c2nc3cc(N4CCN(C(=O)c5ccccc5Cl)CC4)ccc3[nH]2)cc(O)c1O` [Example 111, (2-chlorophenyl)(4-(2-(3,4-dihydroxy-5-methoxyphenyl)-1H-benzo[d]imidazol-5-yl)piperazin-1-yl)methanone], the IC50 is 1 to 10 µM. As for `COc1cc(-c2nc3cc(N4CCN(C(=O)c5ccc(-c6ccccc6)cc5)CC4)ccc3[nH]2)cc(O)c1O` [Example 112, [1,1′-biphenyl]-4-yl(4-(2-(3,4-dihydroxy-5-methoxyphenyl)-1H-benzo[d]imidazol-5-yl)piperazin-1-yl)methanone], the figure is more than 100 µM.

Consider `COc1cc(-c2nc3cc(N4CCN(C(=O)c5cccc(-c6ccccc6)c5)CC4)ccc3[nH]2)cc(O)c1O` [Example 113, [1,1′-biphenyl]-3-yl(4-(2-(3,4-dihydroxy-5-methoxyphenyl)-1H-benzo[d]imidazol-5-yl)piperazin-1-yl)methanone], for which the IC50 was more than 100 µM. As for `O=C(O)c1ccc(-c2nc3cc(N4CCC4)ccc3[nH]2)cc1O` [Example 114, 4-(5-(azetidin-1-yl)-1H-benzo[d]imidazol-2-yl)-2-hydroxybenzoic acid], the figure is 10 to 100 µM; as for `O=C(O)c1cc(-c2nc3cc(N4CCC4)ccc3[nH]2)ccc1O` [Example 115, 5-(5-(azetidin-1-yl)-1H-benzo[d]imidazol-2-yl)-2-hydroxybenzoic acid], 10 to 100 µM; as for `COc1cc(-c2nc3cc(N4CCN(S(=O)(=O)C(C)C)CC4)ccc3[nH]2)cc(O)c1O` [Example 116, 5-(5-(4-(isopropylsulfonyl)piperazin-1-yl)-1H-benzo[d]imidazol-2-yl)-3-methoxybenzene-1,2-diol], 1 to 10 µM. With `CS(=O)(=O)N1CCN(c2ccc3[nH]c(-c4ccc(C(=O)O)c(O)c4)nc3c2)CC1` [Example 117, 2-hydroxy-4-(5-(4-(methylsulfonyl)piperazin-1-yl)-1H-benzo[d]imidazol-2-yl)benzoic acid] the figure was 10 to 100 µM; with `O=C(O)c1ccc(-c2nc3cc(N4CCN(C(=O)c5ccccc5)CC4)ccc3[nH]2)cc1O` [Example 118, 4-(5-(4-benzoylpiperazin-1-yl)-1H-benzo[d]imidazol-2-yl)-2-hydroxybenzoic acid], 10 to 100 µM; with `O=C(O)c1ccc(-c2nc3cc(N4CCN(c5cccnc5)CC4)ccc3[nH]2)cc1O` [Example 119, 2-hydroxy-4-(5-(4-(pyridin-3-yl)piperazin-1-yl)-1H-benzo[d]imidazol-2-yl)benzoic acid], 10 to 100 µM. With `O=C(O)c1cc(F)c(-c2nc3ccncc3[nH]2)cc1O` [Example 120, 5-fluoro-2-hydroxy-4-(3H-imidazo[4,5-c]pyridin-2-yl)benzoic acid] the figure was 10 to 100 µM; with `COc1cc(-c2nc3cc(N4CCN(C)C(C)(C)C4)ccc3[nH]2)cc(O)c1O` [Example 121, 3-methoxy-5-(5-(3,3,4-trimethylpiperazin-1-yl)-1H-benzo[d]imidazol-2-yl)benzene-1,2-diol], more than 100 µM. For the compound `COc1cc(-c2nc3cc(N4CC5(CN(CC(F)(F)F)C5)C4)ccc3[nH]2)cc(O)c1O` [Example 122, 3-methoxy-5-(5-(6-(2,2,2-trifluoroethyl)-2,6-diazaspiro[3.3]heptan-2-yl)-1H-benzo[d]imidazol-2-yl)benzene-1,2-diol], the IC50 is 10 to 100 µM.

For `COc1cc(-c2nc3cc(N4CCN(C(=O)c5cccc(Cl)c5)CC4)ccc3[nH]2)cc(O)c1O` [Example 123, (3-chlorophenyl)(4-(2-(3,4-dihydroxy-5-methoxyphenyl)-1H-benzo[d]imidazol-5-yl)piperazin-1-yl)methanone], the IC50 lay in the range of 10 to 100 µM.

`COc1cccc(C(=O)N2CCN(c3ccc4[nH]c(-c5cc(O)c(O)c(OC)c5)nc4c3)CC2)c1` [Example 124, (4-(2-(3,4-dihydroxy-5-methoxyphenyl)-1H-benzo[d]imidazol-5-yl)piperazin-1-yl)(3-methoxyphenyl)methanone]: the IC50 was 1 to 10 µM.

As to `COc1cc(-c2nc3cc(N4CCN(C(=O)c5cc(C)cc(C)c5)CC4)ccc3[nH]2)cc(O)c1O` [Example 125, (4-(2-(3,4-dihydroxy-5-methoxyphenyl)-1H-benzo[d]imidazol-5-yl)piperazin-1-yl)(3,5-dimethylphenyl)methanone], the IC50 is more than 100 µM. As to `COc1cc(-c2nc3cc(N4CCN(C(=O)c5ccc(C(C)(C)C)cc5)CC4)ccc3[nH]2)cc(O)c1O` [Example 126, (4-(tert-butyl)phenyl)(4-(2-(3,4-dihydroxy-5-methoxyphenyl)-1H-benzo[d]imidazol-5-yl)piperazin-1-yl)methanone], the IC50 was more than 100 µM. As for `COc1cc(-c2nc3cc(N4CCN(C(=O)c5ccc(C(=O)O)cc5)CC4)ccc3[nH]2)cc(O)c1O` [Example 127, 4-(4-(2-(3,4-dihydroxy-5-methoxyphenyl)-1H-benzo[d]imidazol-5-yl)piperazine-1-carbonyl)benzoic acid], the figure is 10 to 100 µM.
